Laboratory results: patent US11642307B2, “Ambrisentan for use in the treatment of acute renal failure” (Noorik Biopharmaceuticals AG, priority 2016, dated 2023)

System: healthy human subjects
Assay: 24-hour intravenous ambrisentan infusion in healthy human subjects: urine output, water balance, free water clearance
Assay type: in vivo
Experimental: A study was performed to determine whether lower concentrations of ambrisentan in blood are less likely to produce renal side effects as those seen with current concentrations achieved with the current commercial presentation of ambrisentan. In this study a liquid composition of ambrisentan at a concentration of 5 mg/mL was administered to 20 healthy human subjects at varying rates of administration in order to achieve different ambrisentan concentrations in blood and over a period of 24 hours. Target concentrations in the low dose group were 20 and 40 ng/mL (Group A) after 4 hours and 16 hours respectively, and 80 and 160 ng/mL in the high dose group (Group B) after 4 hours and 16 hours respectively. […] Steady state for each target concentration was maintained for at least 8 hours prior to increasing the concentration. Ten subjects were assigned to Group A and ten subjects to Group B. Pharmacokinetic and plasma ET-1 samples were collected and analysed at different timepoints for up to 72 hours. Urine was collected for 24 hours and in intervals from 0-2 hours, 2-4 hours, 4-8 hours, 8-12, hours, 12-18 hours and 18-24 hours.
All subjects received a 100 ml/hr infusion of 0.45% physiological solution for 24 hours and ambrisentan was administered in a 250-mL solution of 0.9% of physiological solution over a period of 24 hours. Subjects had free access to water and a normal diet. At a minimum, subjects received through intravenous infusion a total of 2650 mL of water and 223.3 mmol of sodium in the 24-hour period of drug administration.
The effect on urine was consistent throughout the different collection periods of the 24-hour infusion period. Patients in Group A maintained higher urinary output rates throughout the study as compared to Group B. In the Tables Below, Water Balance is the result of subtracting urine volume from intravenous liquid input.
The increase in urine formation (diuresis) was further characterised by determining the effect of ambrisentan on urine composition, specifically urine osmolality.

COC(c1ccccc1)(c1ccccc1)[C@H](Oc1nc(C)cc(C)n1)C(=O)O [ambrisentan]
Hourly Water Balance, Mean (Group A (low dose, target 20 and 40 ng/mL), collection period 0 H to 2 H): -74.58 mL/h | Hourly Water Balance, Mean (Group A (low dose, target 20 and 40 ng/mL), collection period 2 H to 4 H): -76.08 mL/h | Hourly Water Balance, Mean (Group A (low dose, target 20 and 40 ng/mL), collection period 4 H to 8 H): -1.08 mL/h | Hourly Water Balance, Mean (Group A (low dose, target 20 and 40 ng/mL), collection period 8 H to 12 H): -12.58 mL/h | Hourly Water Balance, Mean (Group A (low dose, target 20 and 40 ng/mL), collection period 12 H to 18 H): -13.75 mL/h | Hourly Water Balance, Mean (Group A (low dose, target 20 and 40 ng/mL), collection period 18 H to 24 H): -32.92 mL/h | Cumulative Water Balance, Mean (Group A (low dose, target 20 and 40 ng/mL), end of collection 2 H): -149.17 mL | Cumulative Water Balance, Mean (Group A (low dose, target 20 and 40 ng/mL), end of collection 4 H): -301.33 mL | Cumulative Water Balance, Mean (Group A (low dose, target 20 and 40 ng/mL), end of collection 8 H): -305.67 mL | Cumulative Water Balance, Mean (Group A (low dose, target 20 and 40 ng/mL), end of collection 12 H): -356.00 mL | Cumulative Water Balance, Mean (Group A (low dose, target 20 and 40 ng/mL), end of collection 18 H): -438.50 mL | Cumulative Water Balance, Mean (Group A (low dose, target 20 and 40 ng/mL), end of collection 24 H): -636.00 mL | Hourly Water Balance, Mean (Group B (high dose, target 80 and 160 ng/mL), collection period 0 H to 2 H): -6.33 mL/h | Hourly Water Balance, Mean (Group B (high dose, target 80 and 160 ng/mL), collection period 2 H to 4 H): 11.17 mL/h | Hourly Water Balance, Mean (Group B (high dose, target 80 and 160 ng/mL), collection period 4 H to 8 H): 27.17 mL/h | Hourly Water Balance, Mean (Group B (high dose, target 80 and 160 ng/mL), collection period 8 H to 12 H): 7.17 mL/h | Hourly Water Balance, Mean (Group B (high dose, target 80 and 160 ng/mL), collection period 12 H to 18 H): -10.08 mL/h | Hourly Water Balance, Mean (Group B (high dose, target 80 and 160 ng/mL), collection period 18 H to 24 H): 34.75 mL/h | Cumulative Water Balance, Mean (Group B (high dose, target 80 and 160 ng/mL), end of collection 2 H): -12.67 mL | Cumulative Water Balance, Mean (Group B (high dose, target 80 and 160 ng/mL), end of collection 4 H): 9.67 mL | Cumulative Water Balance, Mean (Group B (high dose, target 80 and 160 ng/mL), end of collection 8 H): 118.33 mL | Cumulative Water Balance, Mean (Group B (high dose, target 80 and 160 ng/mL), end of collection 12 H): 147.00 mL | Cumulative Water Balance, Mean (Group B (high dose, target 80 and 160 ng/mL), end of collection 18 H): 86.50 mL | Cumulative Water Balance, Mean (Group B (high dose, target 80 and 160 ng/mL), end of collection 24 H): 295.00 mL | fluid accumulation (ambrisentan concentrations above 100 ng/mL): significant accumulation of fluid through the inability to increase urinary output | renal effect, fluid retention (total ambrisentan lower than 100 ng/mL): have less of an effect on fluid retention | renal effect, fluid retention (total ambrisentan of about 100 ng/mL and higher): show an adverse renal effect by promoting fluid retention
